This note sets out measurements from PubChem BioAssay (NCI).

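48-hour exposure; five concentrations; linearly interpolated endpoints. GI50: concentration for 50% inhibition of growth. Definition used: TGI = concentration required for complete inhibition of growth.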

What all share (assay): NCI-60 cell line screen, 48 h
In experiment [1] the test system is HT29 colon.
Experiment [2] relates to K-562 leukemia.
Experiment [3] concerns KM12 colon.
Experiment [4] deals with LOX IMVI melanoma.
For experiment [5], the system named is MALME-3M melanoma.
The subject of experiment [6] is RXF 393 renal.
Experiment [7] has as its system SF-295 CNS.
In experiment [8] the test system is TK-10 renal.
In experiment [9] the test system is UACC-257 melanoma.
Experiment [10] concerns UO-31 renal.

Regarding `CCC1(c2ccncc2)CCC(=O)NC1=O` (stereo not given), the TGI in experiment [1], in experiment [2], in experiment [3], in [4], in [5] and in [6] was greater than 100 µM in each case. In addition, the TGI in experiment [7], in [8], in experiment [9] and in [10] was greater than 100 µM throughout.
As for `S=C1SC2(CCCCCC2)NC2=C1CCCCC2`, the TGI in experiment [1], in experiment [2], in experiment [3], in [4], in [5] and in experiment [6] was greater than 100 µM throughout. Further, the TGI in experiment [7] is 99 µM; in experiment [8], greater than 100 µM; in experiment [9], 67.1 µM; in [10], 60.1 µM.
On to `COC(=O)/C1=C/C2CC(/C=C(/c3ccccc3)C(=O)O1)C2`, for which the TGI came to 65.4 µM in [1]; 96.1 µM in experiment [2]; 62 µM in experiment [3]; 40.3 µM in experiment [4]; 54.2 µM in experiment [5]; 78 µM in experiment [6]. Further, the TGI was greater than 100 µM in experiment [7], greater than 100 µM in experiment [8], 23.2 µM in experiment [9] and greater than 100 µM in experiment [10].
Regarding `COc1ccc(S(=O)(=O)N2CCCCC2)cc1NC(=O)c1[nH]c(C)c2c1CCCCC2=O`, the GI50 was 0.822 µM in experiment [1]; 1.75 µM in [2]; 4.36 µM in [3]; 0.887 µM in experiment [4]; 1.76 µM in experiment [5]; 0.818 µM in experiment [6]. The GI50 in [7] was 2.52 µM; in experiment [8], 0.658 µM; in experiment [9], 0.853 µM; in experiment [10], 0.379 µM. The TGI was 21.7 µM in experiment [1]; greater than 100 µM in [2]; greater than 100 µM in experiment [3]; 2.79 µM in experiment [4]; 93.8 µM in experiment [5]; 4.09 µM in experiment [6]. Besides, the TGI in experiment [7] was greater than 100 µM; in experiment [8], 38.1 µM; in experiment [9] it was 24.7 µM; in [10], 40.7 µM.
Take `c1ccc2c(c1)[Se]c1ccccc1[Se]2`: the TGI in experiment [1], in [2], in experiment [3], in experiment [4], in experiment [5] and in [6] was greater than 100 µM in each case. In addition, the TGI in experiment [7] is 73.8 µM; in experiment [8], greater than 100 µM; in experiment [9], greater than 100 µM; in experiment [10], greater than 100 µM.
On to `COc1ncnc2c1ncn2C/C(Br)=C(\Br)CCl`, for which the GI50 was 1.63 µM in experiment [1]; 3.29 µM in [2]; 3.54 µM in [3]; 2.79 µM in experiment [4]; 1.49 µM in experiment [5]; 1.64 µM in [6]. In addition, the GI50 in experiment [7] is 10.6 µM; in experiment [8], 2.54 µM; in experiment [9] it was 0.775 µM; in experiment [10] it was 2.41 µM. Further, the TGI in [1] was determined as 3.71 µM; in experiment [2], 10.9 µM; in experiment [3], 13.4 µM; in [4], 9.61 µM; in experiment [5], 3.21 µM; in experiment [6], 3.06 µM. In addition, the TGI in experiment [7] was 23.3 µM; in [8] it was 7.64 µM; in [9], 3.9 µM; in experiment [10], 10.6 µM.
As for `C[C@]1(O)CC(=O)[C@]2(O)C3=C(C=C[C@]2(O)C1)C(=O)c1c(O)cccc1C3=O`, the GI50 in experiment [1] is 3.26 µM; in [2], 0.706 µM; in [3], 14 µM; in experiment [4], 2.25 µM; in [5], 0.492 µM; in experiment [6], 1.46 µM. Further, the GI50 in [7] was 18.3 µM; in experiment [8], 2.27 µM; in experiment [9], 1.68 µM; in [10], 1.23 µM. In addition, the TGI in experiment [1] was greater than 100 µM; in experiment [2] it was 5.28 µM; in experiment [3], 40.7 µM; in experiment [4], 5.77 µM; in [5] it was 1.84 µM; in experiment [6], 2.85 µM. Besides, the TGI in [7] is 34.4 µM; in [8] it was 3.97 µM; in experiment [9], 3.21 µM; in [10], 2.52 µM.
Consider `Cc1cc(C)c(S(=O)(=O)Oc2ccccc2[N+](=O)[O-])c(C)c1`, for which the GI50 is 0.921 µM in experiment [1]; 0.398 µM in experiment [2]; 0.803 µM in experiment [3]; 3.33 µM in experiment [4]; 1.26 µM in experiment [5]; 2.48 µM in [6]. The GI50 in experiment [7] is 1.67 µM; in experiment [8] it was 4.86 µM; in experiment [9] it was 4.22 µM; in experiment [10] it was 3.27 µM. The TGI is greater than 100 µM in experiment [1]; greater than 100 µM in experiment [2]; greater than 100 µM in experiment [3]; greater than 100 µM in experiment [4]; greater than 100 µM in experiment [5]; 7.83 µM in experiment [6]. For the same compound, the TGI is greater than 24.3 µM in experiment [7], greater than 100 µM in experiment [8], greater than 100 µM in experiment [9] and greater than 100 µM in [10].
Regarding `CC[O+]=c1cccc2ssnc1-2`, the TGI in experiment [1], in experiment [2], in experiment [3], in experiment [4], in [5] and in experiment [6] was greater than 100 µM throughout. Besides, the TGI in experiment [7], in experiment [8], in [9] and in [10] was greater than 100 µM each time.
